In PMC10140010 (Investigational New Drugs, 2023):
Values joined by “and” are separate entries in the source; they are usually repeats but may differ in a detail not shown here. Equal entries are not always repeated.

Experiments:
[1] = system: OAT1; test: Uptake substrate investigation in HEK293 cells expressing transporter
Description: (§1) The engineered NIH-3T3 (CD74-ROS1 fusion gene) cells was obtained from Nanjing GenScript Biotechnology Co., Ltd. The engineered Ba/F3 (SLC34A2-ROS1 fusion gene) cell line was obtained from Kyinno Biotechnology (Beijing) Co., Ltd. The HCC-78 (SLC34A2-ROS1 fusion gene) cell line was purchased from Shanghai Hongshun Biotechnology Co., Ltd. The engineered NIH-3T3 (CD74-ROS1 fusion gene) cells was obtained from Nanjing GenScript Biotechnology Co., Ltd. The engineered HEK293 cell lines with OATP1B1 (Lot. No ESH6G27), OATP1B3 (Lot. No ESH7G27), OCT2 (Lot. No ESH9G27), OAT1 (Lot. No ESHCG27), OAT3 (Lot. […] No ESHDG27) were purchased from GenoMembrane and validated using the specific substrate for each transporter. All cells were cultured at 37℃ in a 5% CO2 atmosphere. Cell culture reagents were obtained from Life Technologies, Inc. See Supplemental Table 1 for details on the source of the cell lines and the media used.

[2] = system: CYP3A4; test: Hepatic enzyme induction in human hepatocytes (gene expression); format: in vitro ADME
Protocol: Human hepatocytes derived from three donors were used for evaluating for hepatic enzyme inducing activity. […] The gene expression related to cytochrome P450 isoenzyme CYP3A4 in hepatocytes of one of the three donors increased with iruplinalkib 1 µM.

[3] = design: method as in PMID 35087031; details: 180 mg, once daily, patients; cited from earlier work
[4] = molecular target: T1, MATE2K (Homo sapiens, UniProt Q86VL8); format: in vitro ADME
T1 construct: No ESHDG27; host or cells: HEK293
T1 sequence (Q86VL8 1-566 isoform Q86VL8-3): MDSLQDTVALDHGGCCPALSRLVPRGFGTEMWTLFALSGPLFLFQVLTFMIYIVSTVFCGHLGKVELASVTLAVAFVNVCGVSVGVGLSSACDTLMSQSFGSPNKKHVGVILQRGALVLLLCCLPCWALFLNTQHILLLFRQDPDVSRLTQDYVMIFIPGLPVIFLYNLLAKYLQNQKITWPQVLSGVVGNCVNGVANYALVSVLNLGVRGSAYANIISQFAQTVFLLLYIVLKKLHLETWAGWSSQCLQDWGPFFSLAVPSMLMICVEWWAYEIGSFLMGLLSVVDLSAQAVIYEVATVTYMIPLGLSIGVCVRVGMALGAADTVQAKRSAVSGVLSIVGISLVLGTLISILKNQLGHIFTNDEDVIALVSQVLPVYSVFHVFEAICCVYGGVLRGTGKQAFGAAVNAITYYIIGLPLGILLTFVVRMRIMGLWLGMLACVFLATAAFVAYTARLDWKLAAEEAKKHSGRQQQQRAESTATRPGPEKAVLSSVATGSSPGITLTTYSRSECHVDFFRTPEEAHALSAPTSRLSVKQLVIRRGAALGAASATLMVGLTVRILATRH

[5] = system: OAT3; test: Uptake inhibitor investigation in HEK293 cells expressing transporter; format: in vitro ADME
[6] = molecular target: ALK^WT (Homo sapiens, UniProt Q9UM73); test: HTRF kinase activity assay; format: biochemical
Protocol: After the kinase proteins, Ulight-peptide species, adenosine triphosphate (ATP), and compound were mixed, the reaction was carried out at room temperature. Reactions were quenched by the addition of ethylene diamine tetraacetic acid buffer containing Eu antibody and XL665-streptavidin at the indicated time points. Plate reading was performed using an Envision (Perkin Elmer, MA, USA) multifunctional microplate reader.

[7] = molecular target: T2, MRP2 (Homo sapiens, UniProt Q92887); test: MRP2 inhibitor investigation; format: in vitro ADME
T2 construct: host or cells: membrane vesicles ('Membrane capsule'), MRP2 versus NC control, with ATP or AMP
T2 sequence (Q92887 whole entry): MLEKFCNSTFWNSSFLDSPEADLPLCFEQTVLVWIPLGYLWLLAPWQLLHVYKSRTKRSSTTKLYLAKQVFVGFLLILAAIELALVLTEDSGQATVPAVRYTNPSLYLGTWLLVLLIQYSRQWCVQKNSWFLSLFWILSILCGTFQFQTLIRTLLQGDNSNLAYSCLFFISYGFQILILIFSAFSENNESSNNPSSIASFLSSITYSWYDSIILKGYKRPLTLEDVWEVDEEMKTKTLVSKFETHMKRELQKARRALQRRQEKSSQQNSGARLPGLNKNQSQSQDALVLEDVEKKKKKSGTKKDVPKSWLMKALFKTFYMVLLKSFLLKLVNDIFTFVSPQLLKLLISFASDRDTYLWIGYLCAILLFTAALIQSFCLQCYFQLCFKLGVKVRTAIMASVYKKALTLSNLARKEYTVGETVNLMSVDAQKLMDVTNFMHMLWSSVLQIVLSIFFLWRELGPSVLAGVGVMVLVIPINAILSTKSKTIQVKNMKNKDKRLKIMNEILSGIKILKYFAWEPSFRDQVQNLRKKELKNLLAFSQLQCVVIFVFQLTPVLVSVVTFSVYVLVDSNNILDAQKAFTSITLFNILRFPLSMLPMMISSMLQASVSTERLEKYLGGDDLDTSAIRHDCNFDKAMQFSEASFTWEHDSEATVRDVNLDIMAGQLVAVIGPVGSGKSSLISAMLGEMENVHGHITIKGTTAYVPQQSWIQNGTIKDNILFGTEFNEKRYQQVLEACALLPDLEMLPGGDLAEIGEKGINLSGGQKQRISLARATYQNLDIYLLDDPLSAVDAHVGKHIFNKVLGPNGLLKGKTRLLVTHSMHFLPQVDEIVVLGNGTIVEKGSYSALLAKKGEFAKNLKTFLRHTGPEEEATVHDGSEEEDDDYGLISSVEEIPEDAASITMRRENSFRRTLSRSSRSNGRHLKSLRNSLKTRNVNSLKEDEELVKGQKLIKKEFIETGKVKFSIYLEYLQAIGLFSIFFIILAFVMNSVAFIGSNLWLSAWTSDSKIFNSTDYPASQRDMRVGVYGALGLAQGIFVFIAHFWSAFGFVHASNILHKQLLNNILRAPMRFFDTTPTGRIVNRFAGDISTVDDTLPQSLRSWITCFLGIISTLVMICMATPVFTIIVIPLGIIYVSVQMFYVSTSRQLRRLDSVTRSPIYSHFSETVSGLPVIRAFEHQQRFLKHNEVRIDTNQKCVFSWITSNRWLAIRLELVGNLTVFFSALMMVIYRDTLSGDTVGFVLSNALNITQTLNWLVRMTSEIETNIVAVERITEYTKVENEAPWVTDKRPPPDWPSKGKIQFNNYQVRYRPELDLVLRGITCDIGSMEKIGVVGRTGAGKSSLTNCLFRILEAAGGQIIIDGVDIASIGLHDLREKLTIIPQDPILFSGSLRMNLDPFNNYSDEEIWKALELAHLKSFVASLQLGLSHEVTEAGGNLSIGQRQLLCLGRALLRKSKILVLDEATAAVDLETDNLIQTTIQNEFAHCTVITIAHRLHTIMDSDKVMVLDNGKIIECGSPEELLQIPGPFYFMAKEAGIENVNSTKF

[8] = molecular target: EGFR wild type (Homo sapiens, UniProt P00533); test: Z'-LYTE kinase selectivity; details: read-out: IC50 EGFR wild type
[9] = molecular target: AUR2 (Homo sapiens, UniProt O14965); test: Z'-LYTE kinase selectivity; format: biochemical
Chain of AUR2 (O14965 whole entry): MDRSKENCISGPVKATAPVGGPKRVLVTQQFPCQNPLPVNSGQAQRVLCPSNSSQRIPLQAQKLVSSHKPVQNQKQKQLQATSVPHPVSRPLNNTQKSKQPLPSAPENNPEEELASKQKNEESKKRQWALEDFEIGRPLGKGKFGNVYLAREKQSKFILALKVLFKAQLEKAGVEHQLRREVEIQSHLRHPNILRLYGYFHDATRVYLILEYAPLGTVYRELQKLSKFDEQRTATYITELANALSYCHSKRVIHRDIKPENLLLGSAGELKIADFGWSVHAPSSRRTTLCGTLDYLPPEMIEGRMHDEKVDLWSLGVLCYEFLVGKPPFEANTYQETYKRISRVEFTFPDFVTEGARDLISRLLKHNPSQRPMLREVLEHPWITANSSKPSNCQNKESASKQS

[10] = system: CYP2B6; test: Hepatic enzyme induction in human hepatocytes (gene expression); format: in vitro ADME
[11] = molecular target: T3, P-gp (Homo sapiens, UniProt P08183); test: ABC efflux transporter inhibitor test on Caco-2 cells (digoxin efflux); format: in vitro ADME
T3 construct: endogenous in cells; host or cells: Caco-2
T3 sequence (P08183 whole entry): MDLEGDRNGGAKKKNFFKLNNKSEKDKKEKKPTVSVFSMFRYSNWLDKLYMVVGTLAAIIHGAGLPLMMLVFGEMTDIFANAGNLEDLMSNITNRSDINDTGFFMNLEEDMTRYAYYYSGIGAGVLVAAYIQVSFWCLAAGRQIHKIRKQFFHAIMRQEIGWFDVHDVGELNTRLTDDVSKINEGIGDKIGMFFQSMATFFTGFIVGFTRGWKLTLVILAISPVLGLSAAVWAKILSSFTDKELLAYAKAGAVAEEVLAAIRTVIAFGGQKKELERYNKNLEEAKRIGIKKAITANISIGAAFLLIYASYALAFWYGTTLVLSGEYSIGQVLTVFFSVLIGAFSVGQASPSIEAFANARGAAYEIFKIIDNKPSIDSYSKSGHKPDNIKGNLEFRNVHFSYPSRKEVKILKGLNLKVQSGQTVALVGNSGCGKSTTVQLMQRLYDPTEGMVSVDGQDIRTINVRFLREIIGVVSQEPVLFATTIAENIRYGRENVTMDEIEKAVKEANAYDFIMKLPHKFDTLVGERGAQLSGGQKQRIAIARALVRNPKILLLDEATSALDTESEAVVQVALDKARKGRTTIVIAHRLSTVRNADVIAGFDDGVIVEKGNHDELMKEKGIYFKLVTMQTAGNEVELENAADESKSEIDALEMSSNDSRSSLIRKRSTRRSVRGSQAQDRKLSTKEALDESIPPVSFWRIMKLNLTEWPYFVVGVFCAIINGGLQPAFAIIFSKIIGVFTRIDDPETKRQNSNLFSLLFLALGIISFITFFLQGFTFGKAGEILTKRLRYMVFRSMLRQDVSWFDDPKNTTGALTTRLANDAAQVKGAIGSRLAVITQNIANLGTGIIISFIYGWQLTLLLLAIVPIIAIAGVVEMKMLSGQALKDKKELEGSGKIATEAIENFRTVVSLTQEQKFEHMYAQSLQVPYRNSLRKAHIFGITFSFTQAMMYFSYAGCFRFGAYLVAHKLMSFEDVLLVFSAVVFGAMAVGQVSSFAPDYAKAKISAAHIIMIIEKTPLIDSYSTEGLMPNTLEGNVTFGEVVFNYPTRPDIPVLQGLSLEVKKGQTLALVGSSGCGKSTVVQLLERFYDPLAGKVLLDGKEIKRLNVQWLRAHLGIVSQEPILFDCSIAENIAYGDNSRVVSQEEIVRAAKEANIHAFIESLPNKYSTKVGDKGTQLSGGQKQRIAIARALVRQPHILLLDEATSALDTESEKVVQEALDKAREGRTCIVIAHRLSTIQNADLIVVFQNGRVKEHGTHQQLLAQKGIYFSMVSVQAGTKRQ

[12] = system: OAT3; test: Uptake substrate investigation in HEK293 cells expressing transporter
Description: as §1

[13] = system: OATP1B3; test: Uptake inhibitor investigation in HEK293 cells expressing transporter; format: in vitro ADME
[14] = molecular target: T4, OCT2 (Homo sapiens, UniProt O15244); test: as above; format: in vitro ADME; details: metformin as the substrate
T4 construct: No ESH9G27; host or cells: HEK293
T4 sequence (O15244 1-555): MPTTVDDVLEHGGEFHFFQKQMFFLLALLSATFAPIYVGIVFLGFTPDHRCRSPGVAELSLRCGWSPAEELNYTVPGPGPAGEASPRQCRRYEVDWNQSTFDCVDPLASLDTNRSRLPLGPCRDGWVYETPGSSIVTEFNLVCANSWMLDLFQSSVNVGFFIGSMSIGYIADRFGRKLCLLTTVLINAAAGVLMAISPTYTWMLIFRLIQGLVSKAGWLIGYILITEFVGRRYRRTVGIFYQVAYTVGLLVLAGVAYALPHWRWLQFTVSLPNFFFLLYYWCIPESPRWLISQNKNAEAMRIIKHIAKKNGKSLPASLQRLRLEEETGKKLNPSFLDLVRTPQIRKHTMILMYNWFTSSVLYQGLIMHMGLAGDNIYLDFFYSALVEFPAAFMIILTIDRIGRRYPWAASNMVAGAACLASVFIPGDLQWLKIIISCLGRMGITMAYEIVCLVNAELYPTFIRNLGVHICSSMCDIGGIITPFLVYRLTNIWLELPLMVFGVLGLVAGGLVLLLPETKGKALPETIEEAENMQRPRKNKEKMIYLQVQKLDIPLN

[15] = molecular target: T5, BSEP (Homo sapiens, UniProt O95342); test: BSEP inhibitor investigation; format: in vitro ADME
T5 construct: host or cells: membrane vesicles ('Membrane capsule'), BSEP versus NC control, with ATP or AMP
T5 sequence (O95342 whole entry): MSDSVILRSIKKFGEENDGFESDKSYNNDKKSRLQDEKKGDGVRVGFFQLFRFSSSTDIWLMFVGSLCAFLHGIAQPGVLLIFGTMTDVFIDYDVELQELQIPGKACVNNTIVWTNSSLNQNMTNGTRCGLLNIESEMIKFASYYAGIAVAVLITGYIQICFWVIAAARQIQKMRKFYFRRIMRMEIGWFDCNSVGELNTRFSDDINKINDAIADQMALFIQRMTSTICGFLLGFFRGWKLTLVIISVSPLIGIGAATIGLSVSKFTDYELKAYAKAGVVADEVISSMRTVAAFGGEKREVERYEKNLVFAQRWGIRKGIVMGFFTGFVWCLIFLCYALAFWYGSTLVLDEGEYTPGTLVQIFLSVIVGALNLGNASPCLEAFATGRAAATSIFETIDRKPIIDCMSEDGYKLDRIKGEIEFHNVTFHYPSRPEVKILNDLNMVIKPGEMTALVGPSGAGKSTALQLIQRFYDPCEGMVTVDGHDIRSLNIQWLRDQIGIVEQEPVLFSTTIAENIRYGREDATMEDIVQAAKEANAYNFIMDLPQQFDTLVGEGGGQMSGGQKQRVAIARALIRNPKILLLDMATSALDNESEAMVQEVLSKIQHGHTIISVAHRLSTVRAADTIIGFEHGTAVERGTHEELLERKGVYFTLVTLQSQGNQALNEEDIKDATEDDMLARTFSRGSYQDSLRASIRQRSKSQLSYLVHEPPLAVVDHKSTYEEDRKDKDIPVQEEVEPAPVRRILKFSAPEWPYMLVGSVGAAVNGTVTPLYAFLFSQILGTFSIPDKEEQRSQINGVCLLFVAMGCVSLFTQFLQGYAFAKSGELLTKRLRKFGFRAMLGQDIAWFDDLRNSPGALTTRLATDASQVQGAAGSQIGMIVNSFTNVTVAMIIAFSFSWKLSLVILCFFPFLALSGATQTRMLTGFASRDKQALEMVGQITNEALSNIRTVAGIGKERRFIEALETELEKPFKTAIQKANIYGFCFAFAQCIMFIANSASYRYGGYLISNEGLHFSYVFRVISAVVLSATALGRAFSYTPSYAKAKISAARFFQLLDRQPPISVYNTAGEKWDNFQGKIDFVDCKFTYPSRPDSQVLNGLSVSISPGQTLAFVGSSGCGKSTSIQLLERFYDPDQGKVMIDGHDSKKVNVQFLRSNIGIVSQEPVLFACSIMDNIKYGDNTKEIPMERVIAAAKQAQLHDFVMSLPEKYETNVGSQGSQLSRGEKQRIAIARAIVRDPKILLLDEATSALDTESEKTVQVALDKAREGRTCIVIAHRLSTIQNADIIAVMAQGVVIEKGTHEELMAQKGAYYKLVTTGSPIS

[16] = system: OAT1; test: Uptake inhibitor investigation in HEK293 cells expressing transporter; format: in vitro ADME
[17] = MOCK293, test substrate 10 μM, no inhibitor, OAT1 pre-test
[18] = OATP1B1-293 (so in the source), test substrate 10 μM, no inhibitor, OAT1 pre-test
[19] = transporter cells vs MOCK293, test substrate 10 μM, no inhibitor, OAT1 pre-test
[20] = 10 µM, human hepatocytes from three donors
[21] = human, HEK293 cells expressing OAT3, probe ATV, 1 μM, read-out: Inhibition rate
[22] = human, Caco-2 cells, probe digoxin (5 µM), read-out: Exhaust inhibition rate (%)
[23] = MOCK293, test substrate 10 μM, no inhibitor, OAT3 pre-test
[24] = OATP1B1-293 (so in the source), test substrate 10 μM, no inhibitor, OAT3 pre-test
[25] = transporter cells vs MOCK293, test substrate 10 μM, no inhibitor, OAT3 pre-test
[26] = human, HEK293 cells expressing OATP1B3, probe ATV (atorvastatin), 1 μM, read-out: Inhibition rate
[27] = human, HEK293 cells expressing OAT1, probe ATV, 1 μM, read-out: Inhibition rate

## COc1cc(N2CCC3(CCN(C)CC3)CC2)ccc1Nc1ncc(Cl)c(Nc2ccccc2P(C)(C)=O)n1 [Iruplinalkib]
[1]; HEK293
  uptake substrate of OAT1: not an uptake substrate
[1]; [17]
  Uptake transport activity, Mean: 313.6 pmol/mg protein/min
  Uptake transport activity, Repeat 1 / Repeat 2: 302.7 pmol/mg protein/min and 324.5 pmol/mg protein/min
[1]; [18]
  Uptake transport activity, Mean: 289.1 pmol/mg protein/min
  Uptake transport activity, Repeat 1 / Repeat 2: 285.7 pmol/mg protein/min and 292.5 pmol/mg protein/min
[1]; [19]
  Ratio of uptake transit activity: 0.92
  Uptake transport activity, Net value: -24.51 pmol/mg protein/min
[2]; [20]
  inducer of CYP3A4: not an inducer
[2]; donor 1, 0.1 µM
  induction multiples of CYP3A4 gene expression: 0.621 fold
[2]; donor 1, 1 µM
  induction multiples of CYP3A4 gene expression: 2.99 fold
[2]; donor 1, 10 µM
  induction multiples of CYP3A4 gene expression: 2.38 fold
[2]; donor 2, 0.1 µM
  induction multiples of CYP3A4 gene expression: 0.879 fold
[2]; donor 2, 1 µM
  induction multiples of CYP3A4 gene expression: 1.80 fold
[2]; donor 2, 10 µM
  induction multiples of CYP3A4 gene expression: 2.81 fold
[2]; donor 3, 0.1 µM
  induction multiples of CYP3A4 gene expression: 0.964 fold
[2]; donor 3, 1 µM
  induction multiples of CYP3A4 gene expression: 9.36 fold
[2]; donor 3, 10 µM
  induction multiples of CYP3A4 gene expression: 1.86 fold
[3]
  free steady-state average concentration (Cavg,ss): 127 nM
[4]
  inhibition of MATE2K: stronger inhibitor
[5]; HEK293
  inhibitory effect on OAT3: no significant inhibitory effect
[5]; [21]
  inhibition at 0.5 μM: 26.7%
  inhibition at 5 μM: 22.5%
  inhibition at 50 μM: 31.9%
[6]
  IC50: 5.38 nM and < 10 nM
[7]
  efflux inhibitor of MRP2: not an efflux inhibitor
[7]; probe CDCF 5 μM, MRP2, substrate CDCF 5 μM, inhibitor 0.1 μM, read-out: Inhibition rate
  inhibition at 0.1 μM: -7.3%
[7]; probe CDCF 5 μM, MRP2, substrate CDCF 5 μM, inhibitor 0.3 μM, read-out: Inhibition rate
  inhibition at 0.3 μM: -8.8%
[7]; probe CDCF 5 μM, MRP2, substrate CDCF 5 μM, inhibitor 1 μM, read-out: Inhibition rate
  inhibition at 1 μM: -4.5%
[7]; probe CDCF 5 μM, MRP2, substrate CDCF 5 μM, inhibitor 3 μM, read-out: Inhibition rate
  inhibition at 3 μM: -4.2%
[7]; probe CDCF, MRP2, substrate CDCF 5 μM, inhibitor 10 μM, read-out: Inhibition rate
  inhibition at 10 µM: -3.8%
[7]; probe CDCF, MRP2, substrate CDCF 5 μM, inhibitor 30 μM, read-out: Inhibition rate
  inhibition at 30 μM: -2.8%
[7]; probe CDCF, MRP2, substrate CDCF 5 μM, inhibitor 100 μM, read-out: Inhibition rate
  inhibition at 100 μM: -7.3%
[8]
  IC50: 35 nM
[9]
  IC50: 1080 ± 106 nM
[10]; [20]
  inducer of CYP2B6: not an inducer
[10]; donor 1, 0.1 µM
  CYP2B6 gene expression, folds of expression: 0.798 fold
[10]; donor 1, 1 µM
  CYP2B6 gene expression, folds of expression: 1.36 fold
[10]; donor 1, 10 µM
  CYP2B6 gene expression, folds of expression: 2.62 fold
[10]; donor 2, 0.1 µM
  CYP2B6 gene expression, folds of expression: 0.862 fold
[10]; donor 2, 1 µM
  CYP2B6 gene expression, folds of expression: 0.926 fold
[10]; donor 2, 10 µM
  CYP2B6 gene expression, folds of expression: 4.02 fold
[10]; donor 3, 0.1 µM
  CYP2B6 gene expression, folds of expression: 0.526 fold
[10]; donor 3, 1 µM
  CYP2B6 gene expression, folds of expression: 1.13 fold
[10]; donor 3, 10 µM
  CYP2B6 gene expression, folds of expression: 0.602 fold
[11]; Caco-2
  P-gp inhibitor: strong inhibitor
[11]; [22]
  inhibition at 0.1 μM: -30.9%
  inhibition at 0.3 μM: 3.97%
  inhibition at 1 μM: -13.2%
  inhibition at 3 μM: -19.1%
  inhibition at 10 µM: 89.8%
  inhibition at 30 μM: 98.7%
[12]; HEK293
  uptake substrate of OAT3: not an uptake substrate
[12]; [23]
  Uptake transport activity, Mean: 344.0 pmol/mg protein/min
  Uptake transport activity, Repeat 1 / Repeat 2: 309.8 pmol/mg protein/min and 378.3 pmol/mg protein/min
[12]; [24]
  Uptake transport activity, Mean: 88.57 pmol/mg protein/min
  Uptake transport activity, Repeat 1 / Repeat 2: 81.45 pmol/mg protein/min and 95.69 pmol/mg protein/min
[12]; [25]
  Ratio of uptake transit activity: 0.92
  Uptake transport activity, Net value: -255.5 pmol/mg protein/min
[13]; HEK293
  inhibition of OATP1B3 uptake activity: can inhibit the uptake activity
[13]; [26]
  inhibition at 0.5 μM: 7.2%
  inhibition at 5 μM: 15.3%
  inhibition at 50 μM: 41.1%
[14]
  inhibition of OCT2 uptake: only a weak inhibitory effect
[15]
  efflux inhibitor of BSEP: not an efflux inhibitor
[15]; BSEP membrane capsules (membrane vesicles), ATP vs AMP, probe TCA, BSEP, substrate TCA 10 μM, inhibitor 0.1 μM, read-out: Inhibition rate
  inhibition at 0.1 μM: -25.4%
[15]; BSEP membrane capsules (membrane vesicles), ATP vs AMP, probe TCA, BSEP, substrate TCA 10 μM, inhibitor 0.3 μM, read-out: Inhibition rate
  inhibition at 0.3 μM: -10.7%
[15]; BSEP membrane capsules (membrane vesicles), ATP vs AMP, probe TCA, BSEP, substrate TCA 10 μM, inhibitor 1 μM, read-out: Inhibition rate
  inhibition at 1 μM: -26.7%
[15]; BSEP membrane capsules (membrane vesicles), ATP vs AMP, probe TCA, BSEP, substrate TCA 10 μM, inhibitor 3 μM, read-out: Inhibition rate
  inhibition at 3 μM: -11.8%
[15]; BSEP membrane capsules (membrane vesicles), ATP vs AMP, probe TCA, BSEP, substrate TCA 10 μM, inhibitor 10 μM, read-out: Inhibition rate
  inhibition at 10 µM: -10.5%
[15]; BSEP membrane capsules (membrane vesicles), ATP vs AMP, probe TCA, BSEP, substrate TCA 10 μM, inhibitor 30 μM, read-out: Inhibition rate
  inhibition at 30 μM: -0.09%
[15]; BSEP membrane capsules (membrane vesicles), ATP vs AMP, probe TCA, BSEP, substrate TCA 10 μM, inhibitor 100 μM, read-out: Inhibition rate
  inhibition at 100 μM: 26.3%
[16]; HEK293
  inhibitor of OAT1: can not be its inhibitor
[16]; [27]
  inhibition at 0.5 μM: 26.7%
  inhibition at 5 μM: 22.5%
  inhibition at 50 μM: 31.9%
